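Compound exposure: 48 hours, 5 concentrations, 96-well plates. GI50 = concentration required for 50% inhibition of growth. Definition used: TGI = concentration required for complete inhibition of growth.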
What was measured:
Test in all cases: NCI tumour cell line growth inhibition, 48 h
OVCAR-3 ovarian = test system: OVCAR-3 ovarian
SK-OV-3 ovarian = test system: SK-OV-3 ovarian
A498 renal = test system: A498 renal
DU-145 prostate = test system: DU-145 prostate
SN12C renal = test system: SN12C renal
SW-620 colon = test system: SW-620 colon
HCT-15 colon = test system: HCT-15 colon
HS 578T breast = test system: HS 578T breast
LOX IMVI melanoma = test system: LOX IMVI melanoma
RXF 393 renal = test system: RXF 393 renal
MDA-MB-231 breast = test system: MDA-MB-231 breast
HCT-116 colon = test system: HCT-116 colon
NCI-H23 lung = test system: NCI-H23 lung
OVCAR-8 ovarian = test system: OVCAR-8 ovarian
HCC-2998 colon = test system: HCC-2998 colon
NCI-H522 lung = test system: NCI-H522 lung
U251 CNS = test system: U251 CNS
MOLT-4 leukemia = test system: MOLT-4 leukemia
786-0 renal = test system: 786-0 renal
CCRF-CEM leukemia = test system: CCRF-CEM leukemia
NCI-H460 lung = test system: NCI-H460 lung
UACC-62 melanoma = test system: UACC-62 melanoma
OVCAR-5 ovarian = test system: OVCAR-5 ovarian
OVCAR-4 ovarian = test system: OVCAR-4 ovarian
BT-549 breast = test system: BT-549 breast
RPMI-8226 leukemia = test system: RPMI-8226 leukemia
MDA-MB-435 = test system: MDA-MB-435
SNB-19 CNS = test system: SNB-19 CNS
M14 melanoma = test system: M14 melanoma
TK-10 renal = test system: TK-10 renal
SK-MEL-5 melanoma = test system: SK-MEL-5 melanoma
HOP-92 NSCLC = test system: HOP-92 NSCLC
UO-31 renal = test system: UO-31 renal
SR leukemia = test system: SR leukemia
UACC-257 melanoma = test system: UACC-257 melanoma
SNB-75 CNS = test system: SNB-75 CNS
KM12 colon = test system: KM12 colon
HT29 colon = test system: HT29 colon
T-47D breast = test system: T-47D breast
K-562 leukemia = test system: K-562 leukemia
A549 NSCLC = test system: A549 NSCLC
COLO 205 colon = test system: COLO 205 colon
SK-MEL-28 melanoma = test system: SK-MEL-28 melanoma
SF-268 CNS = test system: SF-268 CNS
SK-MEL-2 melanoma = test system: SK-MEL-2 melanoma
NCI/ADR-RES ovarian = test system: NCI/ADR-RES ovarian
PC-3 prostate = test system: PC-3 prostate
IGROV1 ovarian = test system: IGROV1 ovarian
HOP-62 NSCLC = test system: HOP-62 NSCLC
MALME-3M melanoma = test system: MALME-3M melanoma
CAKI-1 renal = test system: CAKI-1 renal
NCI-H226 lung = test system: NCI-H226 lung
SF-539 CNS = test system: SF-539 CNS
ACHN renal = test system: ACHN renal
SF-295 CNS = test system: SF-295 CNS
MCF7 breast = test system: MCF7 breast
EKVX NSCLC = test system: EKVX NSCLC
HL-60(TB) leukemia = test system: HL-60(TB) leukemia

Q: How did the GI50 (OVCAR-3 ovarian) turn out when O=C(Nc1ccccc1Cl)c1cnc2ccc(C3CCNCC3)cn12 was run?
A: 5.6 µM

Q: And the TGI (OVCAR-3 ovarian)?
A: > 100 µM

Q: And the GI50 (SK-OV-3 ovarian)?
A: 3.05 µM

Q: What about the TGI (SK-OV-3 ovarian) of the same compound?
A: > 100 µM

Q: What about the GI50 (A498 renal) of the same compound?
A: 1.49 µM

Q: What about the TGI (A498 renal) of the same compound?
A: > 45.5 µM

Q: And the GI50 (DU-145 prostate)?
A: 6.62 µM

Q: What about the TGI (DU-145 prostate) of the same compound?
A: > 100 µM

Q: What about the GI50 (SN12C renal) of the same compound?
A: 3.71 µM

Q: What about the TGI (SN12C renal) of the same compound?
A: > 100 µM

Q: What about the GI50 (SW-620 colon) of the same compound?
A: > 100 µM

Q: And the TGI (SW-620 colon)?
A: > 100 µM

Q: What about the GI50 (HCT-15 colon) of the same compound?
A: 11 µM

Q: And the TGI (HCT-15 colon)?
A: > 100 µM

Q: And the GI50 (HS 578T breast)?
A: 0.292 µM

Q: And the TGI (HS 578T breast)?
A: 2.92 µM

Q: What about the GI50 (LOX IMVI melanoma) of the same compound?
A: 2.07 µM

Q: What about the TGI (LOX IMVI melanoma) of the same compound?
A: 17 µM

Q: And the GI50 (RXF 393 renal)?
A: 0.802 µM

Q: What about the TGI (RXF 393 renal) of the same compound?
A: 4.84 µM

Q: What about the GI50 (MDA-MB-231 breast) of the same compound?
A: 2.48 µM

Q: What about the TGI (MDA-MB-231 breast) of the same compound?
A: 59.7 µM

Q: What about the GI50 (HCT-116 colon) of the same compound?
A: 13.4 µM

Q: And the TGI (HCT-116 colon)?
A: > 100 µM

Q: And the GI50 (NCI-H23 lung)?
A: 74.5 µM

Q: What about the TGI (NCI-H23 lung) of the same compound?
A: > 100 µM

Q: What about the GI50 (OVCAR-8 ovarian) of the same compound?
A: 13.5 µM

Q: And the TGI (OVCAR-8 ovarian)?
A: > 100 µM

Q: What about the GI50 (HCC-2998 colon) of the same compound?
A: > 100 µM

Q: And the TGI (HCC-2998 colon)?
A: > 100 µM

Q: What about the GI50 (NCI-H522 lung) of the same compound?
A: 1.06 µM

Q: What about the TGI (NCI-H522 lung) of the same compound?
A: > 100 µM

Q: And the GI50 (U251 CNS)?
A: 51.7 µM

Q: And the TGI (U251 CNS)?
A: > 100 µM

Q: And the GI50 (MOLT-4 leukemia)?
A: 55.9 µM

Q: And the TGI (MOLT-4 leukemia)?
A: > 100 µM

Q: What about the GI50 (786-0 renal) of the same compound?
A: 3.18 µM

Q: And the TGI (786-0 renal)?
A: > 100 µM

Q: What about the GI50 (CCRF-CEM leukemia) of the same compound?
A: > 100 µM

Q: And the TGI (CCRF-CEM leukemia)?
A: > 100 µM

Q: And the GI50 (NCI-H460 lung)?
A: > 87.3 µM

Q: What about the TGI (NCI-H460 lung) of the same compound?
A: > 100 µM

Q: And the GI50 (UACC-62 melanoma)?
A: 14.2 µM

Q: What about the TGI (UACC-62 melanoma) of the same compound?
A: 56.7 µM

Q: And the GI50 (OVCAR-5 ovarian)?
A: 1.9 µM

Q: And the TGI (OVCAR-5 ovarian)?
A: > 100 µM

Q: What about the GI50 (OVCAR-4 ovarian) of the same compound?
A: > 75.1 µM

Q: What about the TGI (OVCAR-4 ovarian) of the same compound?
A: > 100 µM

Q: What about the GI50 (BT-549 breast) of the same compound?
A: > 73.7 µM

Q: What about the TGI (BT-549 breast) of the same compound?
A: > 100 µM

Q: And the GI50 (RPMI-8226 leukemia)?
A: > 69 µM

Q: What about the TGI (RPMI-8226 leukemia) of the same compound?
A: > 100 µM

Q: And the GI50 (MDA-MB-435)?
A: 32.6 µM

Q: And the TGI (MDA-MB-435)?
A: > 100 µM

Q: What about the GI50 (SNB-19 CNS) of the same compound?
A: > 87.7 µM

Q: What about the TGI (SNB-19 CNS) of the same compound?
A: > 100 µM

Q: And the GI50 (M14 melanoma)?
A: 15.2 µM

Q: And the TGI (M14 melanoma)?
A: 33.3 µM

Q: And the GI50 (TK-10 renal)?
A: 1.92 µM

Q: What about the TGI (TK-10 renal) of the same compound?
A: 12.2 µM

Q: What about the GI50 (SK-MEL-5 melanoma) of the same compound?
A: 13 µM

Q: And the TGI (SK-MEL-5 melanoma)?
A: 26.6 µM

Q: And the GI50 (HOP-92 NSCLC)?
A: 0.703 µM

Q: What about the TGI (HOP-92 NSCLC) of the same compound?
A: 7.28 µM

Q: What about the GI50 (UO-31 renal) of the same compound?
A: 2.13 µM

Q: What about the TGI (UO-31 renal) of the same compound?
A: > 100 µM

Q: And the GI50 (SR leukemia)?
A: 37.2 µM

Q: And the TGI (SR leukemia)?
A: > 100 µM

Q: And the GI50 (UACC-257 melanoma)?
A: 16.2 µM

Q: And the TGI (UACC-257 melanoma)?
A: 37.1 µM

Q: What about the GI50 (SNB-75 CNS) of the same compound?
A: 0.15 µM

Q: And the TGI (SNB-75 CNS)?
A: 5.02 µM

Q: What about the GI50 (KM12 colon) of the same compound?
A: > 85.4 µM

Q: And the TGI (KM12 colon)?
A: > 100 µM

Q: And the GI50 (HT29 colon)?
A: 1.77 µM

Q: And the TGI (HT29 colon)?
A: 18.6 µM

Q: What about the GI50 (T-47D breast) of the same compound?
A: 5.53 µM

Q: And the TGI (T-47D breast)?
A: > 100 µM

Q: What about the GI50 (K-562 leukemia) of the same compound?
A: 8.23 µM

Q: What about the TGI (K-562 leukemia) of the same compound?
A: > 100 µM

Q: And the GI50 (A549 NSCLC)?
A: 11.5 µM

Q: What about the TGI (A549 NSCLC) of the same compound?
A: > 100 µM

Q: What about the GI50 (COLO 205 colon) of the same compound?
A: 2.85 µM

Q: And the TGI (COLO 205 colon)?
A: 25 µM

Q: What about the GI50 (SK-MEL-28 melanoma) of the same compound?
A: 18.4 µM

Q: And the TGI (SK-MEL-28 melanoma)?
A: 43.3 µM

Q: What about the GI50 (SF-268 CNS) of the same compound?
A: 9.04 µM

Q: What about the TGI (SF-268 CNS) of the same compound?
A: > 100 µM

Q: What about the GI50 (SK-MEL-2 melanoma) of the same compound?
A: 42.3 µM

Q: And the TGI (SK-MEL-2 melanoma)?
A: > 94 µM

Q: What about the GI50 (NCI/ADR-RES ovarian) of the same compound?
A: 39.2 µM

Q: What about the TGI (NCI/ADR-RES ovarian) of the same compound?
A: > 100 µM

Q: What about the GI50 (PC-3 prostate) of the same compound?
A: 14.3 µM

Q: What about the TGI (PC-3 prostate) of the same compound?
A: > 100 µM

Q: What about the GI50 (IGROV1 ovarian) of the same compound?
A: 0.626 µM

Q: And the TGI (IGROV1 ovarian)?
A: 14.6 µM

Q: And the GI50 (HOP-62 NSCLC)?
A: 16.8 µM

Q: What about the TGI (HOP-62 NSCLC) of the same compound?
A: > 100 µM

Q: What about the GI50 (MALME-3M melanoma) of the same compound?
A: 22.1 µM

Q: What about the TGI (MALME-3M melanoma) of the same compound?
A: > 94.5 µM

Q: And the GI50 (CAKI-1 renal)?
A: 1.51 µM

Q: What about the TGI (CAKI-1 renal) of the same compound?
A: 12 µM

Q: What about the GI50 (NCI-H226 lung) of the same compound?
A: > 24.4 µM

Q: What about the TGI (NCI-H226 lung) of the same compound?
A: > 100 µM

Q: And the GI50 (SF-539 CNS)?
A: 4.94 µM

Q: And the TGI (SF-539 CNS)?
A: > 100 µM

Q: What about the GI50 (ACHN renal) of the same compound?
A: 1.02 µM

Q: And the TGI (ACHN renal)?
A: > 46.5 µM

Q: And the GI50 (SF-295 CNS)?
A: 24.8 µM

Q: And the TGI (SF-295 CNS)?
A: > 83.9 µM

Q: And the GI50 (MCF7 breast)?
A: > 68.9 µM

Q: What about the TGI (MCF7 breast) of the same compound?
A: > 100 µM

Q: And the GI50 (EKVX NSCLC)?
A: 11.7 µM

Q: What about the TGI (EKVX NSCLC) of the same compound?
A: > 100 µM

Q: What about the GI50 (HL-60(TB) leukemia) of the same compound?
A: > 67.9 µM

Q: And the TGI (HL-60(TB) leukemia)?
A: > 100 µM
